Source: patent US20260166128A1, “HUMAN AMYLIN ANALOG, AND DERIVATIVE THEREOF AND USE THEREOF” (priority 2022, published 2026)
Numbered stars: 1 amine (or outer) side, 2 acyl side, 3 side chain; on linkers, the order of the positions; unused ones are H or OH. Bridge positions count the residues as written; N and C are the ends. Square brackets hold non-standard residues; d marks the D form. Side chains are listed from the residue outwards. Peptide text beside a SMILES is read from it. * marks the point of attachment. C20 diacid = O=C(O)CCCCCCCCCCCCCCCCCCC(=O)*; C18 diacid = O=C(O)CCCCCCCCCCCCCCCCC(=O)*; γGlu = O=C(O)[C@H](CCC(=O)[*:2])N[*:1]; Hyp = O=C(O)[C@@H]1C[C@@H](O)CN1; AEEA = NCCOCCOCC(=O)O

Molecular target: T1, human amylin receptor (Homo sapiens, UniProt O60896+P30988)
T1 construct: host or cells: CHO-K1/Ga15/AMY3 cells, further stably transfected with a CRE-luciferase plasmid
T1 sequence (P30988 25-474): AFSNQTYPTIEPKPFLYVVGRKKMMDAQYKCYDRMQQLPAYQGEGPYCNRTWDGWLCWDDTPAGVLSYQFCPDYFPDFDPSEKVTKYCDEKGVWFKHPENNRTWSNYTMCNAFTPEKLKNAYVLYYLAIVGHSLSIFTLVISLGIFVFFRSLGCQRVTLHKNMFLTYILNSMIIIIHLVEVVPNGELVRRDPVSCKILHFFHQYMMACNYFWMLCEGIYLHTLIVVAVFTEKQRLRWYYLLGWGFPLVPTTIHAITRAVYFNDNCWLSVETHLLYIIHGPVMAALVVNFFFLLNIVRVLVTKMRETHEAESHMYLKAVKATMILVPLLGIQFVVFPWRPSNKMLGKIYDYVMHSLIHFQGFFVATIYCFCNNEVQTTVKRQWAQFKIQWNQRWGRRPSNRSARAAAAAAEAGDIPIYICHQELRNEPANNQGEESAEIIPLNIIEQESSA
T1 sequence (O60896 24-148 partner): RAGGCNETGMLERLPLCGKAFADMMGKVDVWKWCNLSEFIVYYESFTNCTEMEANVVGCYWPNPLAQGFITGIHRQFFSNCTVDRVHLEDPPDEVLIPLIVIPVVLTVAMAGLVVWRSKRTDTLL
Experiment: Luciferase assay of amylin derivatives in amylin receptor/CRE-luc CHO cell line
Assay type: cell-based
Conditions: CHO-K1/Ga15/AMY3 CRE-luc cells, 24 hours incubation, F12 medium containing 10% FBS; read-out: EC50
Protocol: The experiment was intended to detect the activity or efficacy of the amylin derivatives on a human amylin receptor in vitro by luciferase assay.
50 μL of growth medium (F12 medium containing 10% FBS) was added into each well of a white 96-well plate, and the stably transfected amylin/CRE-lue CHO cells were inoculated into the white 96-well plate at a density of about 20,000 cells/well for activity determination.

Structure (SMILES) | EC50 [nM]
CC[C@H](C)[C@H](NC(=O)[C@@H]1CCCN1C(=O)[C@H](CCCCNC(=O)CC[C@H](NC(=O)CCCCCCCCCCCCCCCCC(=O)O)C(=O)O)NC(=O)[C@H](CC(C)C)NC(=O)[C@H](CC(N)=O)NC(=O)[C@H](CC(N)=O)NC(=O)[C@H](CO)NC(=O)[C@H](CO)NC(=O)[C@H](Cc1c[nH]cn1)NC(=O)[C@H](CCCNC(=N)N)NC(=O)[C@H](CC(C)C)NC(=O)[C@H](Cc1ccccc1)NC(=O)[C@H](CC(=O)O)NC(=O)[C@H](C)NC(=O)[C@H](CC(C)C)NC(=O)[C@H](CCCNC(=N)N)NC(=O)[C@H](CCC(N)=O)NC(=O)[C@@H](NC(=O)[C@H](C)NC(=O)[C@@H]1CSSC[C@H](NC(=O)[C@@H](N)CCCNC(=N)N)C(=O)N[C@@H](CC(N)=O)C(=O)N[C@@H]([C@@H](C)O)C(=O)N[C@@H](C)C(=O)N[C@@H]([C@@H](C)O)C(=O)N1)[C@@H](C)O)C(=O)N[C@@H](CC(C)C)C(=O)N1CCC[C@H]1C(=O)N1CCC[C@H]1C(=O)N[C@H](C(=O)N[C@@H](CC(N)=O)C(=O)N[C@H](C(=O)NCC(=O)N[C@@H](CO)C(=O)N[C@@H](CC(N)=O)C(=O)N[C@H](C(=O)N1C[C@H](O)C[C@H]1C(N)=O)[C@@H](C)O)C(C)C)[C@@H](C)O [PD107] (H-RCNTATCATQRLADFLRHSSNNLK([γGlu-C18 diacid])PILPPTNVGSNT[Hyp]-NH2; disulfide 2-7) | 0.027
CC[C@H](C)[C@H](NC(=O)[C@@H]1CCCN1C(=O)[C@H](CCCCNC(=O)COCCOCCNC(=O)COCCOCCNC(=O)CC[C@H](NC(=O)CCCCCCCCCCCCCCCCC(=O)O)C(=O)O)NC(=O)[C@H](CC(C)C)NC(=O)[C@H](CC(N)=O)NC(=O)[C@H](CC(N)=O)NC(=O)[C@H](CO)NC(=O)[C@H](CO)NC(=O)[C@H](Cc1c[nH]cn1)NC(=O)[C@H](CCCNC(=N)N)NC(=O)[C@H](CC(C)C)NC(=O)[C@H](Cc1ccccc1)NC(=O)[C@H](CC(=O)O)NC(=O)[C@H](C)NC(=O)[C@H](CC(C)C)NC(=O)[C@H](CCCNC(=N)N)NC(=O)[C@H](CCC(N)=O)NC(=O)[C@@H](NC(=O)[C@H](C)NC(=O)[C@@H]1CSSC[C@H](NC(=O)[C@@H](N)CCCNC(=N)N)C(=O)N[C@@H](CC(N)=O)C(=O)N[C@@H]([C@@H](C)O)C(=O)N[C@@H](C)C(=O)N[C@@H]([C@@H](C)O)C(=O)N1)[C@@H](C)O)C(=O)N[C@@H](CC(C)C)C(=O)N1CCC[C@H]1C(=O)N1CCC[C@H]1C(=O)N[C@H](C(=O)N[C@@H](CC(N)=O)C(=O)N[C@H](C(=O)NCC(=O)N[C@@H](CO)C(=O)N[C@@H](CC(N)=O)C(=O)N[C@H](C(=O)N1C[C@H](O)C[C@H]1C(N)=O)[C@@H](C)O)C(C)C)[C@@H](C)O [PD109] (H-RCNTATCATQRLADFLRHSSNNLK([AEEA-AEEA-γGlu-C18 diacid])PILPPTNVGSNT[Hyp]-NH2; disulfide 2-7) | 0.01
CC[C@H](C)[C@H](NC(=O)[C@@H]1CCCN1C(=O)CNC(=O)[C@H](CC(C)C)NC(=O)[C@H](CCCCNC(=O)COCCOCCNC(=O)CC[C@H](NC(=O)CCCCCCCCCCCCCCCCC(=O)O)C(=O)O)NC(=O)[C@H](CC(N)=O)NC(=O)[C@H](CO)NC(=O)[C@H](CO)NC(=O)[C@H](Cc1c[nH]cn1)NC(=O)[C@H](CCCNC(=N)N)NC(=O)[C@H](CC(C)C)NC(=O)[C@H](Cc1ccccc1)NC(=O)[C@H](CC(=O)O)NC(=O)[C@H](C)NC(=O)[C@H](CC(C)C)NC(=O)[C@H](CCCNC(=N)N)NC(=O)[C@H](CCC(N)=O)NC(=O)[C@@H](NC(=O)[C@H](C)NC(=O)[C@@H]1CSSC[C@H](NC(=O)[C@@H](N)CCCNC(=N)N)C(=O)N[C@@H](CC(N)=O)C(=O)N[C@@H]([C@@H](C)O)C(=O)N[C@@H](C)C(=O)N[C@@H]([C@@H](C)O)C(=O)N1)[C@@H](C)O)C(=O)N[C@@H](CC(C)C)C(=O)N1CCC[C@H]1C(=O)N1CCC[C@H]1C(=O)N[C@H](C(=O)N[C@@H](CC(N)=O)C(=O)N[C@H](C(=O)NCC(=O)N[C@@H](CO)C(=O)N[C@@H](CC(N)=O)C(=O)N[C@H](C(=O)N1C[C@H](O)C[C@H]1C(N)=O)[C@@H](C)O)C(C)C)[C@@H](C)O [PD113] (H-RCNTATCATQRLADFLRHSSNK([AEEA-γGlu-C18 diacid])LGPILPPTNVGSNT[Hyp]-NH2; disulfide 2-7) | 0.017

Next, values leading:

EC50 [nM] | Structure (SMILES)
0.039 | CC[C@H](C)[C@H](NC(=O)[C@@H]1CCCN1C(=O)CNC(=O)[C@H](CCCCNC(=O)COCCOCCNC(=O)CC[C@H](NC(=O)CCCCCCCCCCCCCCCCCCC(=O)O)C(=O)O)NC(=O)[C@H](CC(N)=O)NC(=O)[C@H](CC(N)=O)NC(=O)[C@H](CO)NC(=O)[C@H](CO)NC(=O)[C@H](Cc1c[nH]cn1)NC(=O)[C@H](CCCNC(=N)N)NC(=O)[C@H](CC(C)C)NC(=O)[C@H](Cc1ccccc1)NC(=O)[C@H](CC(=O)O)NC(=O)[C@H](C)NC(=O)[C@H](CC(C)C)NC(=O)[C@H](CCCNC(=N)N)NC(=O)[C@H](CCC(N)=O)NC(=O)[C@@H](NC(=O)[C@H](C)NC(=O)[C@@H]1CSSC[C@H](NC(=O)[C@@H](N)CCCNC(=N)N)C(=O)N[C@@H](CC(N)=O)C(=O)N[C@@H]([C@@H](C)O)C(=O)N[C@@H](C)C(=O)N[C@@H]([C@@H](C)O)C(=O)N1)[C@@H](C)O)C(=O)N[C@@H](CC(C)C)C(=O)N1CCC[C@H]1C(=O)N1CCC[C@H]1C(=O)N[C@H](C(=O)N[C@@H](CC(N)=O)C(=O)N[C@H](C(=O)NCC(=O)N[C@@H](CO)C(=O)N[C@@H](CC(N)=O)C(=O)N[C@H](C(=O)N1C[C@H](O)C[C@H]1C(N)=O)[C@@H](C)O)C(C)C)[C@@H](C)O [PD110] (H-RCNTATCATQRLADFLRHSSNNK([AEEA-γGlu-C20 diacid])GPILPPTNVGSNT[Hyp]-NH2; disulfide 2-7)
0.008 | CC[C@H](C)[C@H](NC(=O)[C@@H]1CCCN1C(=O)CNC(=O)[C@H](CCCCNC(=O)COCCOCCNC(=O)CC[C@H](NC(=O)CCCCCCCCCCCCCCCCC(=O)O)C(=O)O)NC(=O)[C@H](CC(N)=O)NC(=O)[C@H](CC(N)=O)NC(=O)[C@H](CO)NC(=O)[C@H](CO)NC(=O)[C@H](Cc1c[nH]cn1)NC(=O)[C@H](CCCNC(=N)N)NC(=O)[C@H](CC(C)C)NC(=O)[C@H](Cc1ccccc1)NC(=O)[C@H](CC(=O)O)NC(=O)[C@H](C)NC(=O)[C@H](CC(C)C)NC(=O)[C@H](CCCNC(=N)N)NC(=O)[C@H](CCC(N)=O)NC(=O)[C@@H](NC(=O)[C@H](C)NC(=O)[C@@H]1CSSC[C@H](NC(=O)[C@@H](N)CCCNC(=N)N)C(=O)N[C@@H](CC(N)=O)C(=O)N[C@@H]([C@@H](C)O)C(=O)N[C@@H](C)C(=O)N[C@@H]([C@@H](C)O)C(=O)N1)[C@@H](C)O)C(=O)N[C@@H](CC(C)C)C(=O)N1CCC[C@H]1C(=O)N1CCC[C@H]1C(=O)N[C@H](C(=O)N[C@@H](CC(N)=O)C(=O)N[C@H](C(=O)NCC(=O)N[C@@H](CO)C(=O)N[C@@H](CC(N)=O)C(=O)N[C@H](C(=O)N1C[C@H](O)C[C@H]1C(N)=O)[C@@H](C)O)C(C)C)[C@@H](C)O [PD111] (H-RCNTATCATQRLADFLRHSSNNK([AEEA-γGlu-C18 diacid])GPILPPTNVGSNT[Hyp]-NH2; disulfide 2-7)
0.03 | CC[C@H](C)[C@H](NC(=O)[C@@H]1CCCN1C(=O)CNC(=O)[C@H](CC(C)C)NC(=O)[C@H](CCCCNC(=O)COCCOCCNC(=O)CC[C@H](NC(=O)CCCCCCCCCCCCCCCCCCC(=O)O)C(=O)O)NC(=O)[C@H](CC(N)=O)NC(=O)[C@H](CO)NC(=O)[C@H](CO)NC(=O)[C@H](Cc1c[nH]cn1)NC(=O)[C@H](CCCNC(=N)N)NC(=O)[C@H](CC(C)C)NC(=O)[C@H](Cc1ccccc1)NC(=O)[C@H](CC(=O)O)NC(=O)[C@H](C)NC(=O)[C@H](CC(C)C)NC(=O)[C@H](CCCNC(=N)N)NC(=O)[C@H](CCC(N)=O)NC(=O)[C@@H](NC(=O)[C@H](C)NC(=O)[C@@H]1CSSC[C@H](NC(=O)[C@@H](N)CCCNC(=N)N)C(=O)N[C@@H](CC(N)=O)C(=O)N[C@@H]([C@@H](C)O)C(=O)N[C@@H](C)C(=O)N[C@@H]([C@@H](C)O)C(=O)N1)[C@@H](C)O)C(=O)N[C@@H](CC(C)C)C(=O)N1CCC[C@H]1C(=O)N1CCC[C@H]1C(=O)N[C@H](C(=O)N[C@@H](CC(N)=O)C(=O)N[C@H](C(=O)NCC(=O)N[C@@H](CO)C(=O)N[C@@H](CC(N)=O)C(=O)N[C@H](C(=O)N1C[C@H](O)C[C@H]1C(N)=O)[C@@H](C)O)C(C)C)[C@@H](C)O [PD112] (H-RCNTATCATQRLADFLRHSSNK([AEEA-γGlu-C20 diacid])LGPILPPTNVGSNT[Hyp]-NH2; disulfide 2-7)
0.011 | CC[C@H](C)[C@H](NC(=O)[C@@H]1CCCN1C(=O)CNC(=O)[C@H](CC(C)C)NC(=O)[C@H](CC(N)=O)NC(=O)[C@H](CCCCNC(=O)COCCOCCNC(=O)CC[C@H](NC(=O)CCCCCCCCCCCCCCCCC(=O)O)C(=O)O)NC(=O)[C@H](CO)NC(=O)[C@H](CO)NC(=O)[C@H](Cc1c[nH]cn1)NC(=O)[C@H](CCCNC(=N)N)NC(=O)[C@H](CC(C)C)NC(=O)[C@H](Cc1ccccc1)NC(=O)[C@H](CC(=O)O)NC(=O)[C@H](C)NC(=O)[C@H](CC(C)C)NC(=O)[C@H](CCCNC(=N)N)NC(=O)[C@H](CCC(N)=O)NC(=O)[C@@H](NC(=O)[C@H](C)NC(=O)[C@@H]1CSSC[C@H](NC(=O)[C@@H](N)CCCNC(=N)N)C(=O)N[C@@H](CC(N)=O)C(=O)N[C@@H]([C@@H](C)O)C(=O)N[C@@H](C)C(=O)N[C@@H]([C@@H](C)O)C(=O)N1)[C@@H](C)O)C(=O)N[C@@H](CC(C)C)C(=O)N1CCC[C@H]1C(=O)N1CCC[C@H]1C(=O)N[C@H](C(=O)N[C@@H](CC(N)=O)C(=O)N[C@H](C(=O)NCC(=O)N[C@@H](CO)C(=O)N[C@@H](CC(N)=O)C(=O)N[C@H](C(=O)N1C[C@H](O)C[C@H]1C(N)=O)[C@@H](C)O)C(C)C)[C@@H](C)O [PD115] (H-RCNTATCATQRLADFLRHSSK([AEEA-γGlu-C18 diacid])NLGPILPPTNVGSNT[Hyp]-NH2; disulfide 2-7)
